Values joined by “and” are separate entries in the source; they are usually repeats but may differ in a detail not shown here. Equal values may be shown once.
Key:
[1] = Biodistribution studies of the 18F tracers in rats; type: in vivo, male Wistar rats; conditions: rat, i.v.
Procedure: Biodistribution studies were carried out in healthy male Wister rats (body weight 200-500 g) at 2 min, 30 min and 60 min post injection (p.i.) (n=3/time point). For |^18F|B-4 only the 2 min and 30 min time points were studied. […] Blood and major organs were collected in tared tubes and weighed. The radioactivity in blood, organs and other body parts was measured using an automated gamma counter. The distribution of radioactivity in different parts of the body at different time points p.i. of the tracer was calculated and expressed as percentage of injected dose (% ID), and as percentage of injected dose per gram tissue (% ID/g) for the selected organs. % ID is calculated as cpm in organ/total cpm recovered. For calculation of total radioactivity in blood, blood mass was assumed to be 7% of the body mass.

PDE10A = target: T1, PDE10A (Rattus norvegicus, UniProt Q9QYJ6); assay: MicroPET imaging studies; type: in vivo, male Wistar rats
T1 construct: from tissue; host or cells: brain (striatum) of living male Wistar rats, in vivo microPET
T1 sequence (Q9QYJ6 1-794): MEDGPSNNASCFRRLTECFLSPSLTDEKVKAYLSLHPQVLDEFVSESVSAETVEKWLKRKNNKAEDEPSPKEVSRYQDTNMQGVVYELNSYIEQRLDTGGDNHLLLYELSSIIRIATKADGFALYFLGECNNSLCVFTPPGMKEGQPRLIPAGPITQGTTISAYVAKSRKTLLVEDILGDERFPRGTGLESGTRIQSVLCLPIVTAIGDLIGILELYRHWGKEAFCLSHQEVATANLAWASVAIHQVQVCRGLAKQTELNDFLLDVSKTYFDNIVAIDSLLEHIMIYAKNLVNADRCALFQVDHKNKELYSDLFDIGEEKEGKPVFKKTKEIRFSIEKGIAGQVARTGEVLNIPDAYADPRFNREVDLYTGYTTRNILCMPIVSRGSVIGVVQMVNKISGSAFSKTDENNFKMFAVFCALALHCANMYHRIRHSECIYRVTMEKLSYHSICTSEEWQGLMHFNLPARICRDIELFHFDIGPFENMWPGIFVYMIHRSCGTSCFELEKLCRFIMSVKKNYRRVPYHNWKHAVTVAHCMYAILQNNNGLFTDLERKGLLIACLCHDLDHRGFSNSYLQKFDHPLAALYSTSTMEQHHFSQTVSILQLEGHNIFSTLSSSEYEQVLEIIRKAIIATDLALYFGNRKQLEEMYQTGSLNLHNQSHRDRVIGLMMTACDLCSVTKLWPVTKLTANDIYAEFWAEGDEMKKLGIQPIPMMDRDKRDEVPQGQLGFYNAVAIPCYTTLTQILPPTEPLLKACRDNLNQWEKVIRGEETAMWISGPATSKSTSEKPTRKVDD
Procedure: Imaging experiments were performed on a Focus™ 220 microPET scanner (Concorde Microsystems, Knoxville, Tenn., USA) using male Wistar rats with body weight varying between 300 and 600 g. […] Dynamic scans of 120 min were acquired in list mode. After reconstruction of the images, they were semi-automatically co-registered with a [^11C]raclopride template of the rat brain, and volumes of interest (VOIs) were generated for different anatomical brain structures (striatum, cerebral cortex and cerebellum) from which time-activity curves (TAC) were constructed for each individual image, using PMOD software (PMOD Technologies Ltd.). Normalization for body weight of the animal and injected dose was done. The radioactivity concentration in the different brain regions was expressed as SUV (standardized uptake value) as a function of time in seconds post injection of the radiotracer. The parametric binding potential (BP) values were calculated for all acquired images by using a simplified reference tissue model where the TAC of the cerebellum was used as input TAC for non-specific binding, using the same software (PMOD).
The radioactivity concentration in the different brain regions was expressed as SUV value as a function of time p.i. of the radiotracer by normalization for body weight of the animal and injected dose.

total initial brain uptake ([1]; 2 min p.i.): 0.40 % ID
% ID in the urinary system ([1]; 30 min p.i.): ~2.5 % ID
% ID, Blood ([1]; 30 min p.i.): 3.35 ± 0.5 % ID
% ID, Carcass ([1]; 30 min p.i.): 26.15 ± 1.2 % ID
% ID, Cerebellum ([1]; 30 min p.i.): 0.028 ± 0.002 % ID
% ID, Cerebrum total ([1]; 30 min p.i.): 0.208 ± 0.027 % ID
% ID, Cortex ([1]; 30 min p.i.): 0.022 ± 0.002 % ID
% ID, Heart ([1]; 30 min p.i.): 0.28 ± 0.1 % ID
% ID, Hippocampus ([1]; 30 min p.i.): 0.004 ± 0.000 % ID
% ID, Intestines ([1]; 30 min p.i.): 12 % ID and 11.98 ± 1.9 % ID
% ID, Kidneys ([1]; 30 min p.i.): 1.71 ± 0.3 % ID
% ID, Liver ([1]; 30 min p.i.): 47 % ID and 47.40 ± 3.5 % ID
% ID, Lungs ([1]; 30 min p.i.): 0.35 ± 0.1 % ID
% ID, Rest of cerebrum ([1]; 30 min p.i.): 0.162 ± 0.030 % ID
% ID, Spleen + Pancreas ([1]; 30 min p.i.): 0.56 ± 0.1 % ID
% ID, Stomach ([1]; 30 min p.i.): 8 % ID and 8.08 ± 3.7 % ID
% ID, Striatum ([1]; 30 min p.i.): 0.019 % ID and 0.019 ± 0.003 % ID
% ID, Urine ([1]; 30 min p.i.): 0.75 ± 0.1 % ID
% ID/g, Blood ([1]; 30 min p.i.): 0.18 ± 0.03 % ID/g
% ID/g, Cerebellum ([1]; 30 min p.i.): 0.104 ± 0.005 % ID/g
% ID/g, Cerebrum + Cerebellum ([1]; 30 min p.i.): 0.151 ± 0.016 % ID/g
% ID/g, Cerebrum total ([1]; 30 min p.i.): 0.157 ± 0.019 % ID/g
% ID/g, Cortex ([1]; 30 min p.i.): 0.145 ± 0.026 % ID/g
% ID/g, Heart ([1]; 30 min p.i.): 0.24 ± 0.04 % ID/g
% ID/g, Hippocampus ([1]; 30 min p.i.): 0.108 ± 0.013 % ID/g
% ID/g, Kidneys ([1]; 30 min p.i.): 0.68 ± 0.12 % ID/g
% ID/g, Liver ([1]; 30 min p.i.): 3.85 ± 0.04 % ID/g
% ID/g, Lungs ([1]; 30 min p.i.): 0.24 ± 0.02 % ID/g
% ID/g, Rest of cerebrum ([1]; 30 min p.i.): 0.149 ± 0.019 % ID/g
% ID/g, Spleen + Pancreas ([1]; 30 min p.i.): 0.40 ± 0.02 % ID/g
% ID/g, Striatum ([1]; 30 min p.i.): 0.458 ± 0.041 % ID/g
peak (maximum) striatum-to-cerebellum ratio (PDE10A; baseline microPET): 4.4
time of peak striatum-to-cerebellum ratio (PDE10A; baseline microPET): about 6 min p.i.
time until which peak striatum-to-cerebellum ratio remained (PDE10A; baseline microPET): about 13 min p.i.
BP (binding potential) at baseline (PDE10A; simplified reference tissue model, cerebellum as reference): 2.5
Structure (SMILES): COc1ccc(COc2ccc(-c3nn(CC[18F])cc3-c3ccncc3)cc2)nc1 [[^18F]B-4]
% ID/g normalized for body weight, Blood ([1]; 30 min p.i.): 0.05 ± 0.01 % ID/g × body wt. in kg
% ID/g normalized for body weight, Cerebellum ([1]; 30 min p.i.): 0.029 ± 0.00 % ID/g × body wt. in kg
% ID/g normalized for body weight, Cerebrum + Cerebellum ([1]; 30 min p.i.): 0.04 ± 0.00 % ID/g × body wt. in kg
% ID/g normalized for body weight, Cerebrum total ([1]; 30 min p.i.): 0.043 ± 0.00 % ID/g × body wt. in kg
% ID/g normalized for body weight, Cortex ([1]; 30 min p.i.): 0.040 ± 0.01 % ID/g × body wt. in kg
% ID/g normalized for body weight, Heart ([1]; 30 min p.i.): 0.07 ± 0.01 % ID/g × body wt. in kg
% ID/g normalized for body weight, Hippocampus ([1]; 30 min p.i.): 0.029 ± 0.00 % ID/g × body wt. in kg
% ID/g normalized for body weight, Kidneys ([1]; 30 min p.i.): 0.19 ± 0.03 % ID/g × body wt. in kg
% ID/g normalized for body weight, Liver ([1]; 30 min p.i.): 1.05 ± 0.03 % ID/g × body wt. in kg
% ID/g normalized for body weight, Lungs ([1]; 30 min p.i.): 0.07 ± 0.00 % ID/g × body wt. in kg
% ID/g normalized for body weight, Rest of cerebrum ([1]; 30 min p.i.): 0.041 ± 0.00 % ID/g × body wt. in kg
% ID/g normalized for body weight, Spleen + Pancreas ([1]; 30 min p.i.): 0.11 ± 0.01 % ID/g × body wt. in kg
% ID/g normalized for body weight, Striatum ([1]; 30 min p.i.): 0.125 % ID/g × body wt. in kg and 0.125 ± 0.01 % ID/g × body wt. in kg
radioactivity concentration, the other brain regions (than striatum) ([1]; 30 min p.i.): ≤ 0.040 % ID/g corrected for body weight
striatum/blood ratio (from % ID/g normalized for body weight) ([1]; 30 min p.i.): 2.61
striatum/cerebellum ratio (from % ID/g normalized for body weight) ([1]; 30 min p.i.): 4.38
striatum/hippocampus ratio (from % ID/g normalized for body weight) ([1]; 30 min p.i.): 4.25

— US8852554B2, “Radiolabelled PDE10 ligands” (Janssen Pharmaceutica NV, priority 2009, dated 2014)
